We go through twelve molecules from ChEMBL document CHEMBL1201862, “PubChem BioAssay data set” (2004).

Structures are written as SMILES.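 A five-concentration, 48-hour dose response in 96-well plates underlies each endpoint, interpolated linearly between surrounding concentrations. At the GI50, growth is halved.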 Calls of active or inactive are those of the source. Cut-off read from the data, not from the text of the source: active = GI50 up to about 1.1 µM and inactive = higher.

Among the test systems are KM12; NCI-H226; OVCAR-3; IGROV-1; NCI-H460; KM-20L2; SNB-19; HCT-116; HL-60; RPMI-8226; A549; SK-MEL-5; COLO 205; LOX IMVI; HOP-62; M19-MEL; Malme-3M; NCI-H23.
Test in all cases: NCI-60 cell line screen, 48 h

For `O=C(Nc1ccc(Cl)cc1C(=O)O)c1ccc([N+](=O)[O-])cc1`, the GI50 with KM12 is 18.4 µM (inactive); with NCI-H226, 11.2 µM (inactive); with OVCAR-3, 22.4 µM (inactive); in the test on IGROV-1 it was 17.4 µM (inactive); with NCI-H460, 18.5 µM (inactive); in the test on KM-20L2, 21.8 µM (inactive). In addition, the GI50 was 14.5 µM (inactive) in the test on SNB-19; 12.2 µM (inactive) in the test on HCT-116; 22.4 µM (inactive) in the test with HL-60; 26.5 µM (inactive) with RPMI-8226; 33.7 µM (inactive) in the test on A549; 20.3 µM (inactive) in the test on SK-MEL-5. The GI50 in the test on COLO 205 is 18.7 µM (inactive); with LOX IMVI it was 19.9 µM (inactive); in the test on HOP-62 it was 10.2 µM (inactive); with M19-MEL it was 21.4 µM (inactive); with Malme-3M, 4.95 µM (inactive).
As for `COc1cc(C2C(Cl)C(=O)N2NC(=O)Cc2ccccc2)cc(Br)c1O` (stereo not given), the GI50 in the test with KM12 is > 100 µM (inactive); with NCI-H226 it was > 100 µM (inactive); in the test on OVCAR-3, 61 µM (inactive); in the test with IGROV-1 it was > 100 µM (inactive); in the test with NCI-H460 it was 80.9 µM (inactive); in the test with KM-20L2 it was > 100 µM (inactive). Also, the GI50 in the test on SNB-19 was > 100 µM (inactive); in the test on HCT-116, 71.4 µM (inactive); in the test on HL-60 it was 48 µM (inactive); in the test with RPMI-8226, 42.5 µM (inactive); in the test with A549, > 100 µM (inactive); in the test on SK-MEL-5, 69.8 µM (inactive). Moreover, the GI50 with COLO 205 was > 100 µM (inactive); in the test with LOX IMVI it was 74.3 µM (inactive); in the test with NCI-H23, 76.9 µM (inactive); in the test on HOP-62 it was > 100 µM (inactive); with M19-MEL, > 100 µM (inactive); with Malme-3M, > 100 µM (inactive).
With `Nc1c(-c2nc3ccccc3s2)[n+]([O-])c2ccccc2[n+]1[O-]`, the GI50 with KM12 is 33.2 µM (inactive); in the test on NCI-H226, 54.7 µM (inactive); in the test on OVCAR-3, 23.3 µM (inactive); in the test with IGROV-1 it was 29.9 µM (inactive); with NCI-H460, 28.1 µM (inactive); in the test with KM-20L2, 48.2 µM (inactive). For the same molecule, the GI50 was 29.3 µM (inactive) with SNB-19; 24.3 µM (inactive) with HCT-116; 29.9 µM (inactive) in the test on HL-60; 25.8 µM (inactive) with RPMI-8226; 36.4 µM (inactive) in the test on A549; 17 µM (inactive) with SK-MEL-5. For the same molecule, the GI50 in the test on COLO 205 is 37.1 µM (inactive); with NCI-H23, 20 µM (inactive); with HOP-62, 22.5 µM (inactive); in the test with M19-MEL it was 28 µM (inactive); in the test with Malme-3M it was 30.4 µM (inactive).
`O=C1CC23CC(=O)CC2(C1)c1ccccc1C3=O` (stereo not given): the GI50 in the test on KM12, with NCI-H226, in the test on OVCAR-3, with IGROV-1, in the test on NCI-H460 and in the test with KM-20L2 was > 100 µM (inactive) in each case. The GI50 with SNB-19, in the test on HCT-116, in the test on HL-60, in the test with RPMI-8226, with A549 and in the test with COLO 205 was > 100 µM (inactive) in each case. Also, the GI50 in the test with LOX IMVI, in the test with NCI-H23, in the test on HOP-62, with M19-MEL and in the test with Malme-3M was > 100 µM (inactive) each time.
Turning to `CC(C)c1ccc(/C=C(\NC(=O)c2ccccc2)c2nc3ccccc3[nH]2)cc1`, the GI50 is 32.2 µM (inactive) in the test with KM12; 55.8 µM (inactive) with NCI-H226; 37.3 µM (inactive) with OVCAR-3; 73.8 µM (inactive) with IGROV-1; 59.4 µM (inactive) with NCI-H460; 58.1 µM (inactive) with KM-20L2. Also, the GI50 is 47.8 µM (inactive) with SNB-19; 31.6 µM (inactive) with HCT-116; 20 µM (inactive) in the test with RPMI-8226; 27.9 µM (inactive) with A549; 23.5 µM (inactive) with SK-MEL-5; 35.8 µM (inactive) with COLO 205. In addition, the GI50 with LOX IMVI was 27.2 µM (inactive); with NCI-H23, 26.8 µM (inactive); in the test on M19-MEL, 33.3 µM (inactive); in the test with Malme-3M, 79.3 µM (inactive).
As to `C[C@H]1CCC2C(CN3CCCCC3)C(=O)OC2[C@]2(C)C(=O)CC(N3CCCCC3)C12O` (stereo not given in full), the GI50 was 3.09 µM (inactive) in the test with KM12; 0.083 µM (active) in the test with NCI-H226; 4.48 µM (inactive) in the test on OVCAR-3; 18.8 µM (inactive) in the test with IGROV-1; 12.8 µM (inactive) with NCI-H460; 7.91 µM (inactive) in the test with KM-20L2. Further, the GI50 in the test with SNB-19 is 20 µM (inactive); in the test with HCT-116, 2.94 µM (inactive); with HL-60, 1.56 µM (inactive); with RPMI-8226, 2.71 µM (inactive); in the test with A549 it was 28.2 µM (inactive); in the test on SK-MEL-5 it was 4.73 µM (inactive). Also, the GI50 in the test on COLO 205 was 4.69 µM (inactive); in the test with NCI-H23, 4.3 µM (inactive); in the test on M19-MEL it was 5.3 µM (inactive); in the test on Malme-3M it was 9.44 µM (inactive).
In the case of `COc1ccc(C(=O)N2c3ccccc3N(C)n3cccc3C2CC(=O)O)cc1` (stereo not given), the GI50 in the test on KM12, in the test with NCI-H226, with OVCAR-3, in the test on IGROV-1, with NCI-H460 and in the test on KM-20L2 was > 100 µM (inactive) each time. Besides, the GI50 with SNB-19, with HL-60, with RPMI-8226, with A549, with SK-MEL-5 and in the test on COLO 205 was > 100 µM (inactive) each time. Besides, the GI50 with LOX IMVI, in the test on NCI-H23, in the test with HOP-62, with M19-MEL and in the test on Malme-3M was > 100 µM (inactive) throughout.
`Cc1cc2c(C)nn(Cc3ccccc3)c2c(C(=O)O)c1C`: the GI50 in the test with NCI-H226, in the test on OVCAR-3, in the test on IGROV-1, in the test with KM-20L2, in the test with SNB-19 and with HCT-116 was > 100 µM (inactive) each time. Moreover, the GI50 in the test with HL-60, with RPMI-8226, in the test with A549, in the test on COLO 205, in the test with LOX IMVI and in the test on NCI-H23 was > 100 µM (inactive) in each case. Moreover, the GI50 in the test with HOP-62, in the test on M19-MEL and in the test with Malme-3M was > 100 µM (inactive) throughout.
As to `COc1ccc(-c2nnc(-c3c(C)n(C)n(-c4ccccc4)c3=O)o2)cc1`, the GI50 with KM12, in the test on NCI-H226, in the test on OVCAR-3, in the test with IGROV-1, in the test with NCI-H460 and in the test with KM-20L2 was > 100 µM (inactive) each time. For the same molecule, the GI50 with SNB-19, in the test with HCT-116, in the test on HL-60, with RPMI-8226, with A549 and in the test with COLO 205 was > 100 µM (inactive) in each case. Moreover, the GI50 in the test on LOX IMVI, in the test on NCI-H23, in the test on HOP-62, with M19-MEL and in the test with Malme-3M was > 100 µM (inactive) throughout.
As to `Cc1cc2cc(Cl)ccc2nc1C(=O)c1ccccc1`, the GI50 with KM12, with NCI-H226, in the test with OVCAR-3, with IGROV-1, in the test with KM-20L2 and with SNB-19 was > 100 µM (inactive) each time. For the same molecule, the GI50 with HCT-116, in the test on RPMI-8226, with A549, with SK-MEL-5, with COLO 205 and in the test with LOX IMVI was > 100 µM (inactive) throughout. In addition, the GI50 in the test on NCI-H23 was > 100 µM (inactive); with HOP-62 it was 43.1 µM (inactive); with M19-MEL, > 100 µM (inactive); with Malme-3M, > 100 µM (inactive).
Consider `CCOC(=O)CC1=N/C(=N/c2cc(Cl)ccc2Cl)SC1`, for which the GI50 in the test on KM12 was > 100 µM (inactive); with NCI-H226 it was > 100 µM (inactive); with OVCAR-3, 62.4 µM (inactive); in the test on IGROV-1, > 100 µM (inactive); with NCI-H460, > 100 µM (inactive); with KM-20L2 it was > 100 µM (inactive). For the same molecule, the GI50 was > 100 µM (inactive) in the test on SNB-19; 97.9 µM (inactive) in the test with HCT-116; > 100 µM (inactive) in the test on HL-60; > 100 µM (inactive) in the test on A549; > 100 µM (inactive) with SK-MEL-5; > 100 µM (inactive) with COLO 205. Moreover, the GI50 in the test with LOX IMVI was 70.5 µM (inactive); with NCI-H23, > 100 µM (inactive); with HOP-62 it was > 100 µM (inactive); with M19-MEL, > 100 µM (inactive); in the test on Malme-3M it was > 100 µM (inactive).
Take `CCOC(=N)CC(=O)Nc1ccc(Cl)cc1`: the GI50 with KM12, in the test on NCI-H226, with OVCAR-3, in the test with IGROV-1, with NCI-H460 and in the test on KM-20L2 was > 100 µM (inactive) each time. Also, the GI50 in the test with SNB-19, with HCT-116, in the test with HL-60, with A549, in the test on SK-MEL-5 and with COLO 205 was > 100 µM (inactive) each time. Also, the GI50 in the test on LOX IMVI, in the test with NCI-H23, with HOP-62, with M19-MEL and with Malme-3M was > 100 µM (inactive) each time.
